According to PMC10511884 (Frontiers in Chemistry, 2023):

Assays:
[1] = molecular target: T1, COX-1 (Ovis aries, UniProt P05979); assay: In vitro COX-1 enzyme inhibitory assay; format: biochemical, sheep; settings: mean ± SEM; n = 3
T1 construct: purchased Sigma-Aldrich C0733-5000UN
T1 sequence (P05979 25-600): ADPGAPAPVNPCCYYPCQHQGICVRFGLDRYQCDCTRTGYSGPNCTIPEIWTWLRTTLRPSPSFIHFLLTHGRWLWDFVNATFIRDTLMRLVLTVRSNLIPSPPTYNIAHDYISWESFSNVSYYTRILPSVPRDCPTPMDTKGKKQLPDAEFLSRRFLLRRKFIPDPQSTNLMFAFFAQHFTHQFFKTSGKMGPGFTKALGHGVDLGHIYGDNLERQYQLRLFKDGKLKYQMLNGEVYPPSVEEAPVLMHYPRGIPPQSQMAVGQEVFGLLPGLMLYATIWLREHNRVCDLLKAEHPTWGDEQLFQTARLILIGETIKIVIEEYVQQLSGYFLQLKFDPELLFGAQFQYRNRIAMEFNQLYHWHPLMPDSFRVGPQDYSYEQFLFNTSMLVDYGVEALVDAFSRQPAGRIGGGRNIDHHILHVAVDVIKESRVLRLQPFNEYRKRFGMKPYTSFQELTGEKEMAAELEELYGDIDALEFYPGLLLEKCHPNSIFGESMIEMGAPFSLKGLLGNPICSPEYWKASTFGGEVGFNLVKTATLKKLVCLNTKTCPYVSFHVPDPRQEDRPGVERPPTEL
Description: (§1) In a nutshell, the test specimens were made in progressively higher concentrations. Furthermore, enzyme solutions for COX-1 from a sheep source (CAT: C0733-5000UN, Sigma-Aldrich) and COX-2 from a human recombinant source (CAT: C0858) were developed. COX-1 has a concentration of 0.7–0.8 g/L, whereas COX-2 has a concentration of 300 units/mL. […] The COX-2 enzyme solution was primed at 300 U/mL levels. 10 μL of the enzyme solution was kept on ice (4°C) for 5–6 min before 50 µL of the required co-factor solution was added. This solution contains 1 mM hematin in a 0.1 M Tris-buffer with pH 8.0, 0.24 mM tetramethyl-p-phenylenediamine dihydrochloride (TMPD), and 0.9 mM glutathione. Then, for the next 5–10 min, the enzyme solution (60 µL) and experiment samples (20 µL) of different strengths has been kept at the normal temperature. Similar to that, 20 µL of 30 mM arachidonic acid was utilized to start the procedure. The mixture’s temperature was held at 37°C for an additional 15 min. A UV-visible spectrophotometer was used to determine the absorbance at 570 nm after which the process was halted by adding HCl. Using the absorbance value per unit time, the percentage of COX-2 inhibition was computed. Celecoxib served as the standard control in the present study.

[2] = molecular target: T2, COX-2 (Homo sapiens, UniProt P35354); assay: In vitro COX-2 enzyme inhibitory assay; format: biochemical; settings: mean ± SEM; n = 3
T2 construct: purchased Sigma-Aldrich C0858
T2 sequence (P35354 18-604): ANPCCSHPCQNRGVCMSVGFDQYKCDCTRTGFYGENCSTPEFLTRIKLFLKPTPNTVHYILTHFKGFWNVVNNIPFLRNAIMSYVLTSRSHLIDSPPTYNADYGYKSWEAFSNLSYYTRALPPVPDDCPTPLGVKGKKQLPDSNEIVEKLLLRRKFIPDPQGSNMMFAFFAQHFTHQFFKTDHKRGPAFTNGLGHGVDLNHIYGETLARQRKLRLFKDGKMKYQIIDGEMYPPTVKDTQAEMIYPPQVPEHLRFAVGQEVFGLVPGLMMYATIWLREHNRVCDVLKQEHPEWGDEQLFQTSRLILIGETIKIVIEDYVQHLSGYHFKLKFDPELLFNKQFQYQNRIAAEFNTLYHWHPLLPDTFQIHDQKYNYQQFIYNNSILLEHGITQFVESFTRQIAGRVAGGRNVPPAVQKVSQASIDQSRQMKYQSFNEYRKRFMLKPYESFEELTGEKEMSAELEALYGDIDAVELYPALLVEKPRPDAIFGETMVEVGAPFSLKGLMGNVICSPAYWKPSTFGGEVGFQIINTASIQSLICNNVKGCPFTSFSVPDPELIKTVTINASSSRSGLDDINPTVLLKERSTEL
Description: as §1

Row | SMILES | IC50 [1] [µM] | IC50 [2] [µM]
1 | Cc1cc(C2=C(C(F)(F)F)NC(=O)NC2c2ccccc2)no1 (centres unmarked) [Compound C1, 5-(5-methylisoxazol-3-yl)-4-phenyl-6-(trifluoromethyl)-3,4-dihydropyrimidin-2(1H)-one] | 239 ± 2.3 | 2.52 ± 0.02
2 | COc1ccc(C2NC(=O)NC(C(F)(F)F)=C2c2cc(C)on2)cc1 (centres unmarked) [Compound C2, 4-(4-methoxyphenyl)-5-(5-methylisoxazol-3-yl)-6-(trifluoromethyl)-3,4-dihydro-pyrimidin-2(1H)-one] | 172 ± 1.9 | 2.43 ± 0.05
3 | COc1ccc(C2NC(=O)NC(C(F)(F)F)=C2c2cc(-c3ccccc3)on2)cc1O (centres unmarked) [Compound C3, 4-(3-hydroxy-4-methoxyphenyl)-5-(5-phenylisoxazol-3-yl)-6-(trifluoromethyl)-3,4-dihydropyrimidin-2(1H)-one] | 22.6 ± 0.9 | 0.93 ± 0.01
4 | COc1ccc(C2NC(=O)NC(C(F)(F)F)=C2c2cc(-c3ccc(-c4ccccc4)cc3)on2)cc1 (centres unmarked) [Compound C4, 5-(5-([1,1′-biphenyl]-4-yl)isoxazol-3-yl)-4-(4-methoxyphenyl)-6-(trifluoromethyl)-3,4-dihydropyrimidin-2(1H)-one] | 66.8 ± 1.84 | 8.27 ± 0.2
5 | O=C1NC(C(F)(F)F)=C(c2cc(-c3ccco3)on2)C(c2ccco2)N1 (centres unmarked) [Compound C5, 4-(furan-2-yl)-5-(5-(furan-2-yl)isoxazol-3-yl)-6-(trifluoromethyl)-3,4-dihydropyrimidin-2(1H)-one] | 35.5 ± 1.49 | 0.85 ± 0.04
6 | COc1ccc(C2NC(=O)NC(C(F)(F)F)=C2c2cc(-c3ccco3)on2)cc1 (centres unmarked) [Compound C6, 5-(5-(furan-2-yl)isoxazol-3-yl)-4-(4-methoxyphenyl)-6-(trifluoromethyl)-3,4-dihydro-pyrimidin-2(1H)-one] | 34 ± 1.31 | 0.55 ± 0.03
7 | O=C1NC(C(F)(F)F)=C(c2cc(-c3ccco3)on2)C(c2ccc(C(F)(F)F)cc2)N1 (centres unmarked) [Compound C7, 5-(5-(furan-2-yl)isoxazol-3-yl)-6-(trifluoromethyl)-4-(4-(trifluoromethyl)phenyl)-3,4-dihydropyrimidin-2(1H)-one] | 83.8 ± 0.96 | 0.74 ± 0.1
8 | Cc1ccc(C2NC(=O)NC(C(F)(F)F)=C2c2cc(-c3ccco3)on2)cc1 (centres unmarked) [Compound C8, 5-(5-(furan-2-yl)isoxazol-3-yl)-4-p-tolyl-6-(trifluoromethyl)-3,4-dihydropyrimidin-2(1H)-one] | 91.19 ± 0.51 | 0.79 ± 0.05
9 | O=C1NC(C(F)(F)F)=C(c2cc(-c3ccncc3)on2)C(c2ccccc2)N1 (centres unmarked) [Compound C9, 4-phenyl-5-(5-(pyridin-4-yl)isoxazol-3-yl)-6-(trifluoromethyl)-3,4-dihydropyrimidin-2(1H)-one] | 101 ± 1.17 | 1.7 ± 0.1
10 | O=C1NC(C(F)(F)F)=C(c2cc(-c3ccncc3)on2)C(c2ccncc2)N1 (centres unmarked) [Compound C10, 4-(Pyridin-4-yl)-5-(5-(pyridin-4-yl)isoxazol-3-yl)-6-(trifluoromethyl)-3,4 dihydropyrimidin-2(1H)-one] | 61.9 ± 1.11 | 20 ± 0.4
